In publication PMC9529944, “Molecular asymmetry of a photosynthetic supercomplex from green sulfur bacteria” (Nature Communications, 2022):
One block for each molecule: values may come before it.

B1: PscD (natural protein, UniProt Q8KEP5 1-143, looked up)
chain: MQPQLSRPQTASNQVRKAVSGPWSGNAVHKAEKYFITSAKRDRDGKLQIELVPASGRRKLSPTPEMIRRLIDGEIEIYILTTQPDIAIDMNKEIIDMENRYVIDFDKRGVKWTMREIPVFYHEGKGLCVELHNKIYTLDQFFK
notes: PscD subunit of the reaction center of Chlorobaculum tepidum; also called PscD subunit
B2: Fenna-Matthews-Olson (FMO) complex (natural protein, UniProt Q46393 1-366, looked up)
chain: MALFGSNDVTTAHSDYEIVLEGGSSSWGKVKARAKVNAPPASPLLPADCDVKLNVKPLDPAKGFVRISAVFESIVDSTKNKLTIEADIANETKERRISVGEGMVSVGDFSHTFSFEGSVVNLFYYRSDAVRRNVPNPIYMQGRQFHDILMKVPLDNNDLIDTWEGTVKAIGSTGAFNDWIRDFWFIGPAFTALNEGGQRISRIEVNGLNTESGPKGPVGVSRWRFSHGGSGMVDSISRWAELFPSDKLNRPAQVEAGFRSDSQGIEVKVDGEFPGVSVDAGGGLRRILNHPLIPLVHHGMVGKFNNFNVDAQLKVVLPKGYKIRYAAPQYRSQNLEEYRWSGGAYARWVEHVCKGGVGQFEILYAQ
notes: FMO bacteriochlorophyll a protein of Chlorobaculum tepidum TLS; homotrimer, each monomer with eight BChl a; Two trimers (FMO1, FMO2) of the same protein sit on one reaction center in the RC-FMO2 structure; they are one molecule here; also called FMO trimer; FMO1

Columns and labels:
[1] = biological target: T1, GsbRC core (PscA dimer) in the RC-FMO2 photosynthetic supercomplex (Chlorobaculum tepidum, UniProt Q8KAY0); assay: cryo-EM structure, RC-FMO2 […] Å; type: binding
T1 construct: gene CT2020; native complex from membranes of C. tepidum, DDM-solubilized, no tags; homodimeric PscA core with associated subunits; PscE 59 residues modeled; with Photosystem P840 reaction center iron-sulfur protein; Cytochrome c (photosystem P840 reaction center cytochrome c-551); Photosystem P840 reaction center protein PscD; PscE, accessory membrane subunit; Ric1 protein; Bacteriochlorophyll a protein

PscB = biological target: T2, PscB (Chlorobaculum tepidum, UniProt Q8KAY1); assay: cryo-EM structure, RC-FMO2 […] Å; type: binding; conditions: FA and FB clusters
T2 construct: native subunit in the RC-FMO2 supercomplex, no tags; loop 17-129 unmodelled; with Photosystem P840 reaction center, large subunit

[2] = biological target: B2; assay: cryo-EM structure; single-particle cryo-EM of the native supercomplex extracted with DDM from C. tepidum membranes; RC-FMO2 at 3.08 Å (local 2.92 and 3.06 Å), RC-FMO1 at 3.49 Å; 20 mM Tris-Cl pH 8.0, 200 mM NaCl, 0.17 mM DDM; conditions: both partners purified
[3] = biological target: the molecule itself; assay: as above

cryo-EM structure, RC-FMO2 3.08 Å ([1]; three molecules in RC core): four Chl a, three chlorobactenes (F26)
Molecule: CC(C)=CCC/C(C)=C/C=C/C(C)=C/C=C/C(C)=C/C=C/C=C(C)/C=C/C=C(C)/C=C/c1c(C)ccc(C)c1C [F26, chlorobactene]

Molecule: [S]1[Fe]2[S]3[S]4[Fe][S]2[Fe]4[Fe]13 [SF4, iron-sulfur cluster]
cryo-EM structure, RC-FMO2 3.08 Å (PscB): Cartoons are the protein residues that interact with the FeS clusters
cryo-EM structure, RC-FMO2 3.08 Å ([1]; FX cluster at PscA dimer): The FeS clusters and P840 dimer that drive the ETC in RC-FMO2 are arranged similarly

Molecule: B1
binding result [2]: binds

Molecule: B2
binding result [3]: binds
